BigSolDB 2.1

Nc1ccc(Oc2ccc(N)cc2)cc1
solubility (mole fraction)
Conditions | 293.15 K | 298.15 K | 303.15 K | 308.15 K | 313.15 K | 318.15 K | 323.15 K | 328.15 K | 333.15 K
in DMAc | 0.14 | 0.144 | 0.148 | 0.152 | 0.157 | 0.164 | 0.166 | 0.177 | 0.184
in DMF | 0.113 | 0.117 | 0.12 | 0.126 | 0.132 | 0.139 | 0.146 | 0.152 | 0.161
in DMSO | 0.149 | 0.153 | 0.159 | 0.165 | 0.171 | 0.181 | 0.185 | 0.192 | 0.201
